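A five-concentration, 48-hour dose response in 96-well plates underlies each endpoint, interpolated linearly between surrounding concentrations. GI50 marks 50% less growth.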 Active and inactive are the calls of the source. No stated cut-off is given here; in the data, active = GI50 up to about 1.1 µM and inactive = higher.

The source of these data is ChEMBL document CHEMBL1201862, “PubChem BioAssay data set” (2004).

Test systems include CCRF-CEM; EKVX; HCT-15; HOP-62; HT-29; IGROV-1; Malme-3M; NCI-H23; OVCAR-3; OVCAR-8; SF-268; SF-539; SK-MEL-2; SK-OV-3; SNB-75; SR; SW-620; UACC-257; HOP-92.
What all share (test): NCI tumour cell line growth inhibition, 48 h

`CC(=O)c1ccc2c(c1)oc(=O)n2CCN(C)C`: the GI50 in the assay on CCRF-CEM is > 100 µM (inactive); in the assay on EKVX, > 100 µM (inactive); in the assay on HCT-15, greater than 100 µM; in the assay with HOP-62, > 100 µM (inactive); with HT-29, 93.8 µM (inactive); in the assay on IGROV-1, 32.1 µM (inactive). For the same molecule, the GI50 with Malme-3M was 2.02 µM (inactive); with NCI-H23 it was > 100 µM (inactive); with OVCAR-3 it was > 100 µM (inactive); in the assay on OVCAR-8 it was > 100 µM (inactive); in the assay on SF-268, > 100 µM (inactive); in the assay on SF-539, > 100 µM (inactive). For the same molecule, the GI50 in the assay on SK-MEL-2 is > 100 µM (inactive); in the assay with SK-OV-3, > 100 µM (inactive); in the assay with SNB-75 it was 21.7 µM (inactive); in the assay with SR, > 100 µM (inactive); in the assay with SW-620 it was > 100 µM (inactive); with UACC-257, > 100 µM (inactive).

On to `CCCC(O)c1ccc2[nH]c3c(C)cc([N+](=O)[O-])c(C)c3c2c1` (stereo not drawn), for which the GI50 was > 100 µM (inactive) in the assay with CCRF-CEM; > 100 µM (inactive) in the assay on EKVX; greater than 100 µM in the assay with HCT-15; > 100 µM (inactive) in the assay with HOP-62; 68.1 µM (inactive) in the assay on HT-29; > 100 µM (inactive) in the assay on Malme-3M. Also, the GI50 was > 100 µM (inactive) in the assay with NCI-H23; 83.2 µM (inactive) with OVCAR-3; > 100 µM (inactive) in the assay on OVCAR-8; > 100 µM (inactive) in the assay on SF-268; > 100 µM (inactive) in the assay on SF-539; > 100 µM (inactive) in the assay with SK-MEL-2. Further, the GI50 is > 100 µM (inactive) in the assay with SNB-75, > 100 µM (inactive) with SR, 99.1 µM (inactive) in the assay with SW-620 and > 100 µM (inactive) in the assay with UACC-257.

Regarding `COC(=O)/C(=N\N)C(C(=O)C(=O)Nc1cc(Cl)ccc1Cl)c1nc2ccc([N+](=O)[O-])cc2nc1O` (stereo not drawn), the GI50 is > 100 µM (inactive) in the assay on CCRF-CEM; 72.9 µM (inactive) with EKVX; 82.6 µM in the assay with HCT-15; > 100 µM (inactive) with HOP-62; > 100 µM (inactive) in the assay with HOP-92; > 100 µM (inactive) in the assay with HT-29. In addition, the GI50 was 50.1 µM (inactive) in the assay with IGROV-1; > 100 µM (inactive) in the assay on Malme-3M; > 100 µM (inactive) in the assay on NCI-H23; 74.3 µM (inactive) with OVCAR-3; > 100 µM (inactive) with OVCAR-8; > 100 µM (inactive) in the assay on SF-268. For the same molecule, the GI50 in the assay on SF-539, in the assay with SK-MEL-2, in the assay with SK-OV-3, in the assay on SNB-75, with SW-620 and with UACC-257 was > 100 µM (inactive) throughout.

For `O=C1C(Cl)C(c2cccc(O)c2)N1n1cnc2ccccc2c1=O` (stereo not drawn), the GI50 in the assay on EKVX is 64.3 µM (inactive); with HCT-15, greater than 100 µM; with HOP-62, > 100 µM (inactive); in the assay on HT-29, > 100 µM (inactive); in the assay with IGROV-1 it was 60.5 µM (inactive); in the assay on Malme-3M, > 100 µM (inactive). The GI50 in the assay with NCI-H23, in the assay with OVCAR-3, with OVCAR-8, in the assay with SF-268, with SK-MEL-2 and in the assay with SK-OV-3 was > 100 µM (inactive) in each case. Besides, the GI50 with SNB-75 was 27.9 µM (inactive); with SR, 26 µM (inactive); with SW-620, > 100 µM (inactive); in the assay with UACC-257 it was > 100 µM (inactive).

Turning to `O=[N+]([O-])c1ccc2nc(/C(=N/Nc3ccccc3)C(O)c3ccco3)c(O)nc2c1` (stereo not drawn), the GI50 is 27.2 µM (inactive) in the assay on CCRF-CEM; 39 µM (inactive) in the assay with EKVX; greater than 100 µM in the assay on HCT-15; 37.6 µM (inactive) in the assay with HOP-62; > 100 µM (inactive) in the assay on HT-29; > 100 µM (inactive) with IGROV-1. Moreover, the GI50 with Malme-3M is > 100 µM (inactive); in the assay on OVCAR-8, > 100 µM (inactive); in the assay with SF-268, 25.4 µM (inactive); with SF-539, 50.2 µM (inactive); in the assay on SK-MEL-2, > 100 µM (inactive); in the assay with SNB-75, > 100 µM (inactive). Moreover, the values for the GI50 in the assay on SR, in the assay with SW-620 and in the assay with UACC-257 were 55.2 µM (inactive), > 100 µM (inactive) and > 100 µM (inactive), respectively.
